Percent effect (mortality or growth inhibition) and percent control (mortality, anti-feedant effect or growth inhibition) data for 23 molecules are collected here from patent publication US20240108006A1, “PESTICIDALLY ACTIVE HETEROAROMATIC COMPOUNDS” (SYNGENTA CROP PROTECTION AG, priority 2021, published 2024).

What all share (format): in vivo
The test system of assay [1] is Plutella xylostella. The assay is described as follows: Example B8: Plutella xylostella (diamond back moth), artificial diet 24-well, eggs. Conditions: 192 h, application rate of 200 ppm, 8 days after infestation, read-out: effect in at least one of the two categories (mortality or growth inhibition). The protocol:
Example B8: Plutella xylostella (Diamond Back Moth)
24-well microtiter plates with artificial diet were treated with aqueous test solutions prepared from 10,000 ppm DMSO stock solutions by pipetting. After drying, Plutella eggs were pipetted through a plastic stencil onto a gel blotting paper and the plate was closed with it. The samples were assessed for mortality and growth inhibition in comparison to untreated samples 8 days after infestation.
The following compounds gave an effect of at least 80% in at least one of the two categories (mortality or growth inhibition) at an application rate of 200 ppm: […]

Assay [2] concerns Spodoptera littoralis. The assay is described as follows: Example B9: Spodoptera littoralis (Egyptian cotton leaf worm), cotton leaf discs, L1 larvae. Conditions: foliar, 72 h, application rate of 200 ppm, 3 days after infestation, read-out: control in at least one of the three categories (mortality, anti-feedant effect, or growth inhibition). As to the method:
Example B9: Spodoptera littoralis (Egyptian Cotton Leaf Worm)
Cotton leaf discs were placed onto agar in 24-well microtiter plates and sprayed with aqueous test solutions prepared from 10,000 ppm DMSO stock solutions. After drying the leaf discs were infested with five L1 larvae. The samples were assessed for mortality, anti-feeding effect, and growth inhibition in comparison to untreated samples 3 days after infestation. Control of Spodoptera littoralis by a test sample is given when at least one of the categories mortality, anti-feedant effect, and growth inhibition is higher than the untreated sample.

For assay [3], the system named is Chilo suppressalis. The assay is described as follows: Example B1: Chilo suppressalis (striped rice stemborer), artificial diet, L2 larvae. Conditions: 144 h, application rate of 200 ppm, 6 days after infestation, read-out: control in at least one of the three categories (mortality, anti-feedant effect, or growth inhibition). As to the method:
Example B1: Chilo suppressalis (Striped Rice Stemborer)
24-well microtiter plates with artificial diet were treated with aqueous test solutions prepared from 10,000 ppm DMSO stock solutions by pipetting. After drying, the plates were infested with L2 larvae (6-8 per well). The samples were assessed for mortality, anti-feeding effect, and growth inhibition in comparison to untreated samples 6 days after infestation. Control of Chilo suppressalis by a test sample is given when at least one of the categories mortality, anti-feedant effect, and growth inhibition is higher than the untreated sample.

Consider `C[C@H](NC(=O)Nc1ccc(Cl)c(C(F)(F)F)c1)c1nccnc1-c1ccc(C#N)cn1` [Example P7, 1-[4-chloro-3-(trifluoromethyl)phenyl]-3-[(1S)-1-[3-(5-cyano-2-pyridyl)pyrazin-2-yl]ethyl]urea], for which the percent effect (mortality or growth inhibition) at 200 ppm in assay [1] was ≥ 80%. In addition, the percent control (mortality, anti-feedant effect or growth inhibition) at 200 ppm in assay [2] and in assay [3] was ≥ 80% in each case.

Regarding `C[C@H](NC(=O)Nc1ccc(Cl)c(C(F)(F)F)c1)c1nccnc1-c1ncccn1` [Example P11, 1-[4-chloro-3-(trifluoromethyl)phenyl]-3-[(1S)-1-(3-pyrimidin-2-ylpyrazin-2-yl)ethyl]urea], in assay [1], the percent effect (mortality or growth inhibition) at 200 ppm is ≥ 80%. Further, the percent control (mortality, anti-feedant effect or growth inhibition) at 200 ppm in assay [2] was ≥ 80%.

As for `C[C@H](NC(=S)Nc1ccc(Cl)c(C(F)(F)F)c1)c1ncnn1-c1ncccn1` [Example P15, 1-[4-chloro-3-(trifluoromethyl)phenyl]-3-[(1S)-1-(2-pyrimidin-2-yl-1,2,4-triazol-3-yl)ethyl]thiourea], the percent control (mortality, anti-feedant effect or growth inhibition) at 200 ppm in assay [2] and in assay [3] was ≥ 80% each time.

As to `C[C@H](NC(=O)Nc1cc(Cl)c(Oc2ncc(C(F)(F)F)cc2Cl)c(Cl)c1)c1ncnn1-c1ncccn1` [Example P26, 1-[3,5-dichloro-4-[[3-chloro-5-(trifluoromethyl)-2-pyridyl]oxy]phenyl]-3-[(1S)-1-(2-pyrimidin-2-yl-1,2,4-triazol-3-yl)ethyl]urea], in assay [1], the percent effect (mortality or growth inhibition) at 200 ppm is ≥ 80%. The percent control (mortality, anti-feedant effect or growth inhibition) at 200 ppm in assay [2] is ≥ 80%.

Regarding `C[C@H](NC(=O)Nc1cc(C(F)(F)F)ccc1Br)c1ncnn1-c1ncccn1` [Example P70, 1-[2-bromo-5-(trifluoromethyl)phenyl]-3-[(1S)-1-(2-pyrimidin-2-yl-1,2,4-triazol-3-yl)ethyl]urea], the percent effect (mortality or growth inhibition) at 200 ppm in assay [1] is ≥ 80%. The percent control (mortality, anti-feedant effect or growth inhibition) at 200 ppm in assay [2] and in assay [3] was ≥ 80% in each case.

As to `C[C@H](NC(=O)Nc1ccc(Br)cc1I)c1ncnn1-c1ncccn1` [Example P76, 1-(4-bromo-2-iodo-phenyl)-3-[(1S)-1-(2-pyrimidin-2-yl-1,2,4-triazol-3-yl)ethyl]urea], the percent effect (mortality or growth inhibition) at 200 ppm in assay [1] was ≥ 80%. The percent control (mortality, anti-feedant effect or growth inhibition) at 200 ppm in assay [2] and in assay [3] was ≥ 80% throughout.

On to `C[C@H](NC(=O)Nc1ccc(Cl)c(Cl)c1Cl)c1ncnn1-c1ncccn1` [Example P95, 1-[(1S)-1-(2-pyrimidin-2-yl-1,2,4-triazol-3-yl)ethyl]-3-(2,3,4-trichlorophenyl)urea], for which, in assay [2], the percent control (mortality, anti-feedant effect or growth inhibition) at 200 ppm was ≥ 80%.

With `C[C@H](NC(=O)N1CCc2cc(Br)ccc21)c1ncnn1-c1ncccn1` [Example P102, 5-bromo-N-[(1S)-1-(2-pyrimidin-2-yl-1,2,4-triazol-3-yl)ethyl]indoline-1-carboxamide], in assay [2], the percent control (mortality, anti-feedant effect or growth inhibition) at 200 ppm was ≥ 80%.

Regarding `C[C@H](NC(=O)Nc1ccc(Cl)c(C(F)(F)F)c1)c1ncnn1-c1ncccn1` [Example P131, 1-[4-chloro-3-(trifluoromethyl)phenyl]-3-[(1S)-1-(2-pyrimidin-2-yl-1,2,4-triazol-3-yl)ethyl]urea], the percent control (mortality, anti-feedant effect or growth inhibition) at 200 ppm in assay [2] and in assay [3] was ≥ 80% throughout.

For `Cc1cc(Cl)c(Cl)cc1NC(=O)N[C@@H](C)c1ncnn1-c1ncccn1` [Example P191, 1-(4,5-dichloro-2-methyl-phenyl)-3-[(1S)-1-(2-pyrimidin-2-yl-1,2,4-triazol-3-yl)ethyl]urea], in assay [1], the percent effect (mortality or growth inhibition) at 200 ppm is ≥ 80%. The percent control (mortality, anti-feedant effect or growth inhibition) at 200 ppm in assay [2] is ≥ 80%.

Take `C[C@H](NC(=O)Nc1cc(Cl)c(OC(F)(F)C(F)Br)cc1Cl)c1ncnn1-c1ncccn1` (stereo partly drawn) [Example P197, 1-[4-(2-bromo-1,1,2-trifluoro-ethoxy)-2,5-dichloro-phenyl]-3-[(1S)-1-(2-pyrimidin-2-yl-1,2,4-triazol-3-yl)ethyl]urea]: in assay [2], the percent control (mortality, anti-feedant effect or growth inhibition) at 200 ppm is ≥ 80%.

With `C#CCOc1cc(NC(=O)N[C@@H](C)c2ncnn2-c2ncccn2)c(F)cc1Br` [Example P203, 1-(4-bromo-2-fluoro-5-prop-2-ynoxy-phenyl)-3-[(1S)-1-(2-pyrimidin-2-yl-1,2,4-triazol-3-yl)ethyl]urea], the percent effect (mortality or growth inhibition) at 200 ppm in assay [1] was ≥ 80%. Further, in assay [2], the percent control (mortality, anti-feedant effect or growth inhibition) at 200 ppm was ≥ 80%.

Regarding `C[C@H](NC(=O)Nc1cc(Oc2ccc(C(F)(F)F)cn2)c(Cl)cc1Cl)c1ncnn1-c1ncccn1` [Example P209, 1-[2,4-dichloro-5-[[5-(trifluoromethyl)-2-pyridyl]oxy]phenyl]-3-[(1S)-1-(2-pyrimidin-2-yl-1,2,4-triazol-3-yl)ethyl]urea], in assay [1], the percent effect (mortality or growth inhibition) at 200 ppm was ≥ 80%. Further, in assay [2], the percent control (mortality, anti-feedant effect or growth inhibition) at 200 ppm was ≥ 80%.

With `CC(NC(=O)Nc1cnc(Br)cc1Br)c1nccnc1-c1ncccn1` (centres unmarked) [Example P242, 1-(4,6-dibromo-3-pyridyl)-3-[1-(3-pyrimidin-2-ylpyrazin-2-yl)ethyl]urea], the percent control (mortality, anti-feedant effect or growth inhibition) at 200 ppm in assay [2] and in assay [3] was ≥ 80% each time.

For the molecule `C[C@H](NC(=O)Nc1ccc(Br)cc1OC(F)F)c1ncnn1-c1ccc(C#N)cn1` [Example P254, 1-[4-bromo-2-(difluoromethoxy)phenyl]-3-[(1S)-1-[2-(5-cyano-2-pyridyl)-1,2,4-triazol-3-yl]ethyl]urea], the percent effect (mortality or growth inhibition) at 200 ppm in assay [1] is ≥ 80%. Besides, the percent control (mortality, anti-feedant effect or growth inhibition) at 200 ppm in assay [2] is ≥ 80%.

On to `CC(NC(=O)Nc1cnc(Br)cc1Br)c1nccnc1-n1nccn1` (centres unmarked) [Example P262, 1-(4,6-dibromo-3-pyridyl)-3-[1-[3-(triazol-2-yl)pyrazin-2-yl]ethyl]urea], for which the percent control (mortality, anti-feedant effect or growth inhibition) at 200 ppm in assay [2] was ≥ 80%.

For the molecule `C[C@H](NC(=O)Nc1cc(Br)c(F)cc1F)c1ncnn1-c1ncccn1` [Example P343, 1-(5-bromo-2,4-difluoro-phenyl)-3-[(1S)-1-(2-pyrimidin-2-yl-1,2,4-triazol-3-yl)ethyl]urea], the percent control (mortality, anti-feedant effect or growth inhibition) at 200 ppm in assay [2] and in assay [3] was ≥ 80% each time.

`C[C@H](NC(=O)Nc1cc(Br)c(C(F)(F)F)cc1F)c1ncnn1-c1ncccn1` [Example P350, 1-[5-bromo-2-fluoro-4-(trifluoromethyl)phenyl]-3-[(1S)-1-(2-pyrimidin-2-yl-1,2,4-triazol-3-yl)ethyl]urea]: the percent control (mortality, anti-feedant effect or growth inhibition) at 200 ppm in assay [2] and in assay [3] was ≥ 80% throughout.

Take `COC(=O)c1cc2c(cc1NC(=O)N[C@@H](C)c1ncnn1-c1ncccn1)OC(F)(F)O2` [Example P369, methyl 2,2-difluoro-6-[[(1S)-1-(2-pyrimidin-2-yl-1,2,4-triazol-3-yl)ethyl]carbamoylamino]-1,3-benzodioxole-5-carboxylate]: the percent effect (mortality or growth inhibition) at 200 ppm in assay [1] is ≥ 80%. The percent control (mortality, anti-feedant effect or growth inhibition) at 200 ppm in assay [2] was ≥ 80%.

As for `C[C@H](NC(=O)Nc1cc2c(cc1Cl)OCO2)c1ncnn1-c1ncccn1` [Example P370, 1-(6-chloro-1,3-benzodioxol-5-yl)-3-[(1S)-1-(2-pyrimidin-2-yl-1,2,4-triazol-3-yl)ethyl]urea], the percent control (mortality, anti-feedant effect or growth inhibition) at 200 ppm in assay [2] and in assay [3] was ≥ 80% each time.

`C[C@H](NC(=O)Nc1cc(Cl)c(Br)cc1F)c1ncnn1-c1ncccn1` [Example P373, 1-(4-bromo-5-chloro-2-fluoro-phenyl)-3-[(1S)-1-(2-pyrimidin-2-yl-1,2,4-triazol-3-yl)ethyl]urea]: the percent control (mortality, anti-feedant effect or growth inhibition) at 200 ppm in assay [2] and in assay [3] was ≥ 80% in each case.

In the case of `COc1cc(F)c(F)cc1NC(=O)N[C@@H](C)c1ncnn1-c1ncccn1` [Example P383, 1-(4,5-difluoro-2-methoxy-phenyl)-3-[(1S)-1-(2-pyrimidin-2-yl-1,2,4-triazol-3-yl)ethyl]urea], the percent control (mortality, anti-feedant effect or growth inhibition) at 200 ppm in assay [2] and in assay [3] was ≥ 80% throughout.

Turning to `COc1cc(OC)c(NC(=O)N[C@@H](C)c2ncnn2-c2ncccn2)cc1Cl` [Example P387, 1-(5-chloro-2,4-dimethoxy-phenyl)-3-[(1S)-1-(2-pyrimidin-2-yl-1,2,4-triazol-3-yl)ethyl]urea], the percent control (mortality, anti-feedant effect or growth inhibition) at 200 ppm in assay [2] is ≥ 80%.
